Data: the supplement of paper PMC10307832

What was measured:
Test in all cases: relative viability (nuclei count vs DMSO), 5 days (fraction); higher = more cells survive
Erlotinib + Trametinib = compound: C#Cc1cccc(Nc2ncnc3cc(OCCOC)c(OCCOC)cc23)c1 [Erlotinib] + CC(=O)Nc1cccc(-n2c(=O)n(C3CC3)c(=O)c3c(Nc4ccc(I)cc4F)n(C)c(=O)c(C)c32)c1 [Trametinib] (partner 0.02 µM)
Outline: (§1)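 A single step with final 0.05% Triton X-100, 1% formaldehyde and 1 ug/ml Hoechst fixed the cells and stained nuclei 5 days after treatment. Lung cancer cell lines in 1536-well plates had been treated by pin tool the day after seeding with one drug alone or a fixed anchor-drug dose plus five library-drug doses (not always all listed) in √10 steps, and nuclei were counted on 4× images. Relative viability is the ratio of nuclei in treated wells to nuclei in vehicle wells, taken as the median of duplicate plates.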

Erlotinib + AZD7762 = compound: C#Cc1cccc(Nc2ncnc3cc(OCCOC)c(OCCOC)cc23)c1 [Erlotinib] + NC(=O)Nc1cc(-c2cccc(F)c2)sc1C(=O)N[C@H]1CCCNC1 [AZD7762] (partner 0.2 µM)
Outline: as §1

AT9283 + Bortezomib = compound: O=C(Nc1c[nH]nc1-c1nc2ccc(CN3CCOCC3)cc2[nH]1)NC1CC1 [AT9283] + CC(C)C[C@H](NC(=O)[C@H](Cc1ccccc1)NC(=O)c1cnccn1)B(O)O [Bortezomib] (partner 0.002 µM)
Outline: as §1

AT9283 + Pictilisib = compound: O=C(Nc1c[nH]nc1-c1nc2ccc(CN3CCOCC3)cc2[nH]1)NC1CC1 [AT9283] + CS(=O)(=O)N1CCN(Cc2cc3nc(-c4cccc5[nH]ncc45)nc(N4CCOCC4)c3s2)CC1 [Pictilisib] (partner 1 µM)
Outline: as §1

AT9283 + Tozasertib = compound: O=C(Nc1c[nH]nc1-c1nc2ccc(CN3CCOCC3)cc2[nH]1)NC1CC1 [AT9283] + Cc1cc(Nc2cc(N3CCN(C)CC3)nc(Sc3ccc(NC(=O)C4CC4)cc3)n2)n[nH]1 [Tozasertib] (partner 0.1 µM)
Outline: as §1

Row | Cell Line | relative viability (Erlotinib + Trametinib; first compound 0.02 µM) | relative viability (Erlotinib + Trametinib; first compound 0.2 µM) | relative viability (Erlotinib + Trametinib; first compound 0.6325 µM) | relative viability (Erlotinib + Trametinib; first compound 2 µM) | relative viability (Erlotinib + AZD7762; first compound 0.02 µM) | relative viability (Erlotinib + AZD7762; first compound 0.2 µM) | relative viability (Erlotinib + AZD7762; first compound 0.6325 µM) | relative viability (Erlotinib + AZD7762; first compound 2 µM) | relative viability (AT9283 + Bortezomib; first compound 0.003 µM) | relative viability (AT9283 + Bortezomib; first compound 0.03 µM) | relative viability (AT9283 + Bortezomib; first compound 0.09487 µM) | relative viability (AT9283 + Bortezomib; first compound 0.3 µM) | relative viability (AT9283 + Pictilisib; first compound 0.003 µM) | relative viability (AT9283 + Pictilisib; first compound 0.03 µM) | relative viability (AT9283 + Pictilisib; first compound 0.09487 µM) | relative viability (AT9283 + Pictilisib; first compound 0.3 µM) | relative viability (AT9283 + Tozasertib; first compound 0.003 µM) | relative viability (AT9283 + Tozasertib; first compound 0.03 µM) | relative viability (AT9283 + Tozasertib; first compound 0.09487 µM) | relative viability (AT9283 + Tozasertib; first compound 0.3 µM)
1 | LOU-NH91 | 0.759 | 0.57 | 0.739 | 0.644 | 0.682 | 0.692 | 0.769 | 0.684 | 0.436 | 0.447 | 0.438 | 0.389 | 0.469 | 0.487 | 0.482 | 0.394 | 0.61 | 0.391 | 0.373 | 0.388
2 | NCI-H596 | 0.745 | 0.75 | 0.886 | 0.751 | 1.04 | 0.954 | 1.05 | 0.87 | 0.999 | 1.14 | 0.947 | 0.772 | 0.391 | 0.415 | 0.412 | 0.373 | 0.943 | 0.839 | 0.933 | 0.553
3 | NCI-H3122 | 0.254 | 0.271 | 0.22 | 0.246 | 0.948 | 1.05 | 1 | – | 1.04 | 1.02 | 0.548 | 0.37 | 0.602 | 0.41 | 0.271 | 0.217 | 0.338 | 0.348 | 0.319 | 0.113
4 | NCI-H647 | 0.653 | 0.367 | 0.556 | 0.422 | 0.465 | 0.439 | 0.508 | 0.431 | 0.822 | 0.145 | 0.13 | 0.0938 | 0.43 | 0.159 | 0.0749 | 0.085 | 0.307 | 0.14 | 0.117 | 0.118
5 | EMC-BAC-2 | – | 0.765 | 0.901 | 0.739 | 1.1 | 1.08 | 1.26 | 1.04 | 1.04 | 0.792 | 0.216 | 0.204 | 0.537 | 0.375 | 0.228 | 0.235 | 0.283 | 0.192 | 0.198 | 0.133
6 | HARA | 0.709 | 0.39 | 0.406 | 0.291 | 0.385 | 0.383 | 0.333 | 0.259 | 0.795 | 1.05 | 0.172 | 0.158 | 0.373 | 0.425 | 0.0788 | 0.0662 | 0.154 | 0.1 | 0.0825 | 0.0852
7 | PC-14 | 0.185 | 0.0801 | 0.107 | 0.0898 | 0.206 | 0.178 | 0.12 | 0.13 | 0.944 | 0.704 | 0.179 | 0.116 | 0.534 | 0.657 | 0.0566 | 0.0616 | 0.504 | 0.387 | 0.0959 | 0.0742
8 | NCI-H1915 | 0.304 | 0.308 | 0.329 | 0.285 | 0.72 | 0.675 | – | 0.659 | 0.769 | 0.952 | 0.887 | 0.341 | 0.854 | 0.95 | 0.293 | 0.178 | 0.347 | 0.3 | 0.195 | 0.179
9 | NCI-H838 | 0.587 | 0.431 | 0.586 | 0.509 | 0.895 | 0.784 | 0.987 | 0.896 | 0.777 | 0.228 | 0.184 | 0.231 | 0.544 | 0.265 | 0.182 | 0.216 | 0.274 | 0.271 | 0.216 | 0.24
10 | BEN | 1.01 | 0.883 | 1.24 | 1.16 | 0.554 | 0.824 | 0.843 | – | 0.688 | 0.739 | 0.242 | 0.27 | 0.501 | 0.555 | 0.188 | 0.224 | 0.598 | 0.503 | 0.387 | 0.376
11 | NCI-H1975 | 0.368 | 0.32 | 0.404 | 0.348 | 0.704 | 0.682 | 0.605 | 0.495 | 0.388 | 0.264 | 0.173 | 0.179 | 0.26 | 0.179 | 0.18 | 0.165 | 0.728 | 0.664 | 0.58 | 0.311
12 | LXF-289 | 0.639 | 0.672 | 0.647 | 0.684 | 1.13 | 1.07 | 1.05 | 1.03 | 0.972 | 0.992 | 0.184 | 0.131 | 0.727 | 0.668 | 0.0746 | 0.0864 | 0.2 | 0.127 | 0.0989 | 0.0888
13 | NCI-H1993 | 0.597 | 0.491 | 0.497 | 0.465 | 0.732 | 0.555 | 0.566 | 0.535 | 1.31 | 0.997 | 0.576 | 0.504 | 0.841 | 0.748 | 0.934 | 0.661 | 0.6 | 0.571 | 0.611 | 0.491
14 | NCI-H23 | 0.36 | 0.349 | 0.385 | 0.306 | 0.291 | 0.177 | 0.198 | 0.219 | 0.852 | 1.01 | 0.557 | 0.236 | 0.457 | 0.267 | 0.213 | 0.153 | 0.413 | 0.603 | 0.276 | 0.285
15 | CAL-12T | 0.334 | 0.279 | 0.31 | 0.173 | 0.63 | 0.688 | 0.529 | 0.544 | 0.89 | 0.896 | 0.547 | 0.212 | 0.354 | 0.297 | 0.23 | 0.31 | 0.31 | 0.29 | 0.212 | 0.215
16 | LCLC-97TM1 | 0.197 | 0.197 | 0.163 | 0.168 | 0.291 | 0.309 | 0.356 | 0.196 | 0.49 | 0.09 | 0.139 | 0.0748 | 0.171 | 0.141 | 0.0991 | 0.114 | 0.199 | 0.123 | 0.18 | 0.181
